The values that follow come from patent US20230027361A1, “METTL3 MODULATORS” (priority 2019, published 2023).

Like-named read-outs stand apart in the source and are kept apart here.

For assay [1], the system named is MOLM-13 cells. Put plainly: MOLM-13 48 Hour Cell Proliferation Assay. The conditions noted are these: Homo sapiens. Format: cell-based. In short, it runs like this:
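MOLM-13 cells in RPMI 1640 with 10% FBS, plated overnight, then exposed 48 h at 37 °C to a 10-point, 4-fold compound dilution series (0.25% DMSO final). Viability read by CellTiter-Glo luminescence, normalized to staurosporine (100% death) and DMSO (0%); IC50 from 4-parameter logistic fit.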

The next assay deals with T1, METTL16 (Homo sapiens, UniProt Q86W50).
T1 sequence (Q86W50 1-562): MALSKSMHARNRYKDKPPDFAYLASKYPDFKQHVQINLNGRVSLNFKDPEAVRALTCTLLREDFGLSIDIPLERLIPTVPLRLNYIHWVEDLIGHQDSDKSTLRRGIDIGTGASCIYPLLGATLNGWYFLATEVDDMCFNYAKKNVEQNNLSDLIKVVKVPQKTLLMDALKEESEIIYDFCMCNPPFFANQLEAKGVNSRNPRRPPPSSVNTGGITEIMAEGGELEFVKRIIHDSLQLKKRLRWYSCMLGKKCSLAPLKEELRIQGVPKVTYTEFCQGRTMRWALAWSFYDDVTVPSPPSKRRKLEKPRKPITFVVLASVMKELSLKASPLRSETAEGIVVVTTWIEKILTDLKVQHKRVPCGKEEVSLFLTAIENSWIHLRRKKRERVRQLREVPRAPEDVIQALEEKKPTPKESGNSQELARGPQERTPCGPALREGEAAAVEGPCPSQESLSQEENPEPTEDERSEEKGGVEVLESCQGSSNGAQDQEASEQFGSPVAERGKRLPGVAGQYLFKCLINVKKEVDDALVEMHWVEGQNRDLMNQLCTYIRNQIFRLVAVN
In words: METTL16 Assay (METTL16 biochemical assay). The conditions noted are these: read-out: METTL16 IC50. As for the experimental part: Assays were performed in a 25 μl-volume in 384-well V-bottom polypropylene microplates (Greiner Bio-One, cat. No. 781280) at ambient temperature. Optimized 1× assay buffer was 20 mM HEPES pH 7.5, 50 mM KCl, 1 mM DTT, 0.01% Tween, 0.01% BSG, 0.004 U/μl RNAseOUT (cat. No. 10777019, ThermoFisher Scientific, Waltham, Mass.). For compound screening METTL16 (final concentration, f.c.=100 nM) was added using a Multidrop Combi (ThermoFisher Scientific, Waltham, Mass.) and preincubated for 5 min. Reactions were started by adding 3′ biotinylated RNA ([…]-biotin) (f.c.=50 nM), 3H-SAM (f.c.=200 nM) and non-radiolabeled SAM (f.c.=800 nM) substrates. Reactions proceeded for 20 minutes and were quenched with excess non-radioactive SAM (f.c.=100 μM). The reactions were then transferred to streptavidin-coated flashplates and incubated for 2 hours at 25° C. Following two washing cycles with 0.1% Tween-20, the plates were sealed and read on a TopCount (PerkinElmer, Waltham, Mass.) plate-based scintillation counter. For determination of kinetic parameters, reaction times were optimized so that measurements were taken during the initial velocity phase of the reaction.

Another assay concerns the target PRMT5-MEP50 (Homo sapiens, UniProt O14744). In words: PRMT5 Assay (PRMT5 biochemical assay). A digest of the protocol: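 PRMT5-MEP50 (2.5 nM final) preincubated 5 min with compound, then reacted 60 min at ambient temperature with 100 nM biotinylated N-acetyl histone H4 peptide and 250 nM 3H-SAM in 20 mM Tris-HCl pH 8.0, 1 mM DTT, 0.01% Tween. Quenched with 15 μM cold SAM; methylated peptide captured on streptavidin flashplates, scintillation counted.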

A further assay concerns the target METTL3/METTL14 (Homo sapiens, UniProt Q86U44). Put plainly: METTL3-14 Standard Enzyme Assay (METTL3 biochemical assay). A digest of the protocol: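 METTL3/METTL14 at 2.5 nM, preincubated 5 min with compound in 20 mM HEPES pH 7.5, 50 mM KCl, 250 μM MgCl2, 1 mM DTT, at ambient temperature. Started with 100 nM 3′-biotinylated RNA and 100 nM ³H-SAM, quenched at 30 min with 15 μM cold SAM. Methylation read by scintillation on streptavidin flashplates.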

Assay [2] relates to m6A in cellular mRNA of MOLM-13 cells. In words: m6A-mRNA LC-MS/MS Assay (m6A cellular assay). Format: cell-based. The conditions noted are these: Homo sapiens, MOLM-13, read-out: m^6A IC50. As for the experimental part:
Cells were harvested by centrifugation followed by mRNA extraction using DIRECT Dynabeads mRNA DIRECT kit (Life Technologies). mRNA was quantified on NanoDrop spectrophotometer (Thermo Fisher Scientific) and digested into single nucleosides using Nucleoside Digestion Mix (New England Biolabs). […] Quantification is performed in comparison with the standard curve, obtained from pure nucleoside standards (Selleck Chemicals) running with the same batch of samples. Percentage m^6A in cellular mRNA is calculated as 100*(m^6A/A).

The target in the next assay is METTL1/WDR4 (Homo sapiens, UniProt Q9UBP6). Put plainly: METTL1 Assay (METTL1 biochemical assay). In short, it runs like this:
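Radiometric methyltransfer by METTL1/WDR4 (6.25 nM f.c., 5 min preincubation) at ambient temperature in HEPES pH 7.5, KCl, MgCl2, DTT; started with 25 nM 3′-biotinylated RNA and 60 nM 3H-SAM, run 20 min, quenched with 15 μM cold SAM. Product captured on streptavidin flashplates (2 h, 25° C), counted by scintillation.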

For assay [3], the system named is MOLM-13 cells. Put plainly: MOLM-13 96 Hour Cell Proliferation Assay. Format: cell-based. The conditions noted are these: Homo sapiens, MOLM-13, 96 h. A digest of the protocol: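 MOLM-13 cells in RPMI 1640 with 10% FBS were plated overnight at 37 °C, then exposed to compound dilutions at 0.25% DMSO final for 96 h. Viability was read by CellTiter-Glo luminescence, normalised to staurosporine (100% death) and DMSO (0% death) controls, and IC50 was fitted by 4-parameter logistic regression.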

Where [4] appears, read: read-out: PRMT5 IC50, PRMT5 biochemical assay.
Setting [5] is: read-out: METTL3 IC50, METTL3 biochemical assay.
[6] abbreviates: PRMT5 biochemical assay, read-out: PRMT5 IC50.
[7] abbreviates: METTL3 biochemical assay, read-out: METTL3 IC50.
Where [8] appears, read: read-out: METTL1 IC50, METTL1 biochemical assay.
The mark [9] stands for this setting: METTL1 biochemical assay, read-out: METTL1 IC50.

METTL3/METTL14, sequence (Q86U44 whole entry, species assumed): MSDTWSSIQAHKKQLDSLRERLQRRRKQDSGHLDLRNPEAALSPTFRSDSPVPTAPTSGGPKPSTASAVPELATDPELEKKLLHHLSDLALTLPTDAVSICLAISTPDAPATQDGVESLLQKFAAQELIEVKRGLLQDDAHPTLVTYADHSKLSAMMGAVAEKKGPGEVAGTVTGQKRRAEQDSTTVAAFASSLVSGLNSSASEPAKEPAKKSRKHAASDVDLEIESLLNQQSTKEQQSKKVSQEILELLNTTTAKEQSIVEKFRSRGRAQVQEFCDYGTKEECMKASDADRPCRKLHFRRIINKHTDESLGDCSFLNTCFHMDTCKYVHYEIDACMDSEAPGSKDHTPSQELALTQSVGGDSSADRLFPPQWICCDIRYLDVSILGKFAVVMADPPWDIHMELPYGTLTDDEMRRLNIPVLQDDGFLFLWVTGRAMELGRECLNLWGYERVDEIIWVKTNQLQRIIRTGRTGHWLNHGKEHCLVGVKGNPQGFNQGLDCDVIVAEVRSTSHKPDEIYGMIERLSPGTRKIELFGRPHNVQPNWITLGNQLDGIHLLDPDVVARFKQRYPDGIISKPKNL
METTL3/METTL14, sequence (Q9HCE5 whole entry partner, species assumed): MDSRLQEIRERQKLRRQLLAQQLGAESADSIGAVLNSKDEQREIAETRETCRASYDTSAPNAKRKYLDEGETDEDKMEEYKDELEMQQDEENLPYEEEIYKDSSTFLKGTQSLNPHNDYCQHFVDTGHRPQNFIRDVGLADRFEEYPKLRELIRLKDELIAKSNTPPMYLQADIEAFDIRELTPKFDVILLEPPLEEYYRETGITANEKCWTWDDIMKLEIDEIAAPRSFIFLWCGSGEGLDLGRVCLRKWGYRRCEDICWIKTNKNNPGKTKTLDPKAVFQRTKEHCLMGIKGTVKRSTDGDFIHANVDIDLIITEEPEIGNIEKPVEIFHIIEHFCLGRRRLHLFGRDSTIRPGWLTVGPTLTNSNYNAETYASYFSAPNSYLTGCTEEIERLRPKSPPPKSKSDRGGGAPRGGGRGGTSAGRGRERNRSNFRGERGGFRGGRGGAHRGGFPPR
METTL1/WDR4, sequence (Q9UBP6 whole entry, species assumed): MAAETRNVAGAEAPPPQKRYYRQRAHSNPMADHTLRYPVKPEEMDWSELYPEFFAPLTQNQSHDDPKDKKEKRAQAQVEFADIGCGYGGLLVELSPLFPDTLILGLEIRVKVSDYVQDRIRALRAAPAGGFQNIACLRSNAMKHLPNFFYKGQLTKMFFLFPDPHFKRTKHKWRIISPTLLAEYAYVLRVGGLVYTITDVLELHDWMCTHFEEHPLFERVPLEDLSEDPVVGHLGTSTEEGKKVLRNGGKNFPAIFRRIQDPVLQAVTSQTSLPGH
METTL1/WDR4, sequence (P57081 whole entry partner, species assumed): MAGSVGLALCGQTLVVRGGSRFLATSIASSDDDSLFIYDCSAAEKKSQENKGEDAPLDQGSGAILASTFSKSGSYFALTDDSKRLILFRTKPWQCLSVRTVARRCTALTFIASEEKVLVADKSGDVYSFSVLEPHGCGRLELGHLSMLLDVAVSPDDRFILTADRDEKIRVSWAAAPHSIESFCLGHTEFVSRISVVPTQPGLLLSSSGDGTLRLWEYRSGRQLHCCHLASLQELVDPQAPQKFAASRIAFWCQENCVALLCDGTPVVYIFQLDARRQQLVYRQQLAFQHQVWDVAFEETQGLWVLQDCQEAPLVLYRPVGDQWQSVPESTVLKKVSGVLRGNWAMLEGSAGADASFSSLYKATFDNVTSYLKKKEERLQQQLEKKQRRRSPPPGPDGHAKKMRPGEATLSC
PRMT5-MEP50, sequence (O14744 whole entry): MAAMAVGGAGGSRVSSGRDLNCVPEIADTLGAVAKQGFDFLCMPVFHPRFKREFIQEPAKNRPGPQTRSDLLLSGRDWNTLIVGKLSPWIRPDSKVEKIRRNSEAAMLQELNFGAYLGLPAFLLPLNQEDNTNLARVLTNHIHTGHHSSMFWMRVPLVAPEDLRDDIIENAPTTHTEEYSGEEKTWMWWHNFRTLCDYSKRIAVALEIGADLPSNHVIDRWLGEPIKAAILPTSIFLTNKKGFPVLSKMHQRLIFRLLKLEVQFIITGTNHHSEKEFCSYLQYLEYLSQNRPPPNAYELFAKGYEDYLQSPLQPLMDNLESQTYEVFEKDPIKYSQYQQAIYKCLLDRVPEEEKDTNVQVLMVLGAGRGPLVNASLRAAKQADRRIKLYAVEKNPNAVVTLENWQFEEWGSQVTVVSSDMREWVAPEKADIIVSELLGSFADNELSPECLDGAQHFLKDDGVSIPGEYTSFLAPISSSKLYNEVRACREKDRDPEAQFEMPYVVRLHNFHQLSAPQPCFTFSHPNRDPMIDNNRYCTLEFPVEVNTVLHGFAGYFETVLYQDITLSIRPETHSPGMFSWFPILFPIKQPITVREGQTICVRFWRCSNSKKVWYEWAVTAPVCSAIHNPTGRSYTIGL
PRMT5-MEP50, sequence (Q9BQA1 whole entry partner): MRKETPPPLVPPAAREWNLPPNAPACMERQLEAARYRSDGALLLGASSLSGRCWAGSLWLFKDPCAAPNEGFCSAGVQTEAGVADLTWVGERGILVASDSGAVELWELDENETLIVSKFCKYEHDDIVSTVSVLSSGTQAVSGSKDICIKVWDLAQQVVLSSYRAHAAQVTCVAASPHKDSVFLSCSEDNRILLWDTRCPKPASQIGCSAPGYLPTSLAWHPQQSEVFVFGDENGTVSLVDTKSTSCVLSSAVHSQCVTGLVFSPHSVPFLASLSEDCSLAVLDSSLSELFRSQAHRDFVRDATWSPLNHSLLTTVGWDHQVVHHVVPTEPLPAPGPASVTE

The IC50 is the concentration needed to halve the response being measured. Regarding `CNc1ccc2ccc(OC[C@H]3O[C@@H](n4cc(-c5cn(C)cn5)c5c(N)ncnc54)[C@@H](F)[C@@H]3O)cc2n1` [I-28], the IC50 in the assay with MOLM-13 cells [1] is 1000 to 10000 nM; on METTL16, greater than 1000 nM; on PRMT5-MEP50 (setting [4]) it was 100 to 1000 nM; at METTL3/METTL14 (setting [5]), less than 10 nM; in assay [2], 1000 to 10000 nM.
Consider `CNc1ccc2ccc(CC[C@H]3C[C@@H](n4cc(CO)c5c(N)ncnc54)[C@H](O)[C@@H]3O)cc2n1` [I-52, (1R,2S,3R,5S)-3-[4-amino-5-(hydroxymethyl)-7H-pyrrolo[2,3-d]pyrimidin-7-yl]-5-{2-[2-(methylamino)quinolin-7-yl]ethyl}cyclopentane-1,2-diol], for which the half-inhibitory concentration (IC50) was greater than 1000 nM on METTL16; less than 10 nM on PRMT5-MEP50 (setting [6]); less than 10 nM at METTL3/METTL14 (setting [7]); greater than 1000 nM on METTL1/WDR4; 1000 to 10000 nM in assay [2].
Turning to `CN(C)c1ccc2ccc(OC[C@H]3O[C@@H](n4ccc5c(N)ncnc54)[C@H](O)[C@@H]3O)cc2n1` [I-78], the half-inhibitory concentration (IC50) with MOLM-13 cells [1] was greater than 10000 nM; at PRMT5-MEP50 (setting [6]), 10 to 100 nM; with MOLM-13 cells [3] it was 1000 to 10000 nM; on METTL3/METTL14 (setting [7]), 10 to 100 nM; at METTL1/WDR4 (setting [8]) it was greater than 1000 nM; in assay [2], greater than 10000 nM.
In the case of `CN(C)c1ccc2ccc(CC[C@H]3C[C@@H](n4ccc5c(N)ncnc54)[C@H](O)[C@@H]3O)cc2n1` [I-98], the IC50 in the assay on MOLM-13 cells [1] was greater than 10000 nM; at PRMT5-MEP50 (setting [6]), 10 to 100 nM; with MOLM-13 cells [3], 1000 to 10000 nM; on METTL3/METTL14 (setting [7]) it was 10 to 100 nM; on METTL1/WDR4 (setting [8]) it was greater than 1000 nM; in assay [2], greater than 10000 nM.
Regarding `Nc1ncnc2c1ccn2[C@@H]1C[C@H](CCc2ccccn2)[C@@H](O)[C@H]1O` [I-118], the IC50 in the assay with MOLM-13 cells [1] was greater than 10000 nM; on PRMT5-MEP50 (setting [6]), 100 to 1000 nM; in the assay with MOLM-13 cells [3], greater than 10000 nM; at METTL3/METTL14 (setting [7]), greater than 1000 nM; on METTL1/WDR4 (setting [8]), greater than 1000 nM; in assay [2], greater than 10000 nM.
As to `CNc1ccc2ccc(OC[C@H]3O[C@@H](n4cc(-c5ccc(C)o5)c5c(N)ncnc54)[C@@H](F)[C@@H]3O)cc2n1` [I-148], the half-inhibitory concentration (IC50) is less than 1000 nM in the assay with MOLM-13 cells [1]; 100 to 1000 nM on PRMT5-MEP50 (setting [4]); less than 1000 nM in the assay with MOLM-13 cells [3]; less than 10 nM on METTL3/METTL14 (setting [5]); greater than 1000 nM at METTL1/WDR4 (setting [9]); less than 1000 nM in assay [2].
Consider `CNc1ccc2ccc(OC[C@H]3O[C@@H](n4cc(-c5cc[nH]n5)c5c(N)ncnc54)[C@@H](F)[C@@H]3O)cc2n1` [I-228], for which the concentration for half-maximal inhibition (IC50) in the assay on MOLM-13 cells [1] was less than 1000 nM; against PRMT5-MEP50 it was 100 to 1000 nM; with MOLM-13 cells [3] it was less than 1000 nM; at METTL3/METTL14, less than 10 nM; on METTL1/WDR4 (setting [9]) it was greater than 1000 nM; in assay [2], 1000 to 10000 nM.
For the molecule `CCNc1ccc2ccc(OC[C@H]3O[C@@H](n4cc(Cl)c5c(N)ncnc54)[C@@H](F)[C@@H]3O)cc2n1` [I-234], the IC50 with MOLM-13 cells [1] is 1000 to 10000 nM; on PRMT5-MEP50 (setting [6]) it was 10 to 100 nM; in the assay on MOLM-13 cells [3], 1000 to 10000 nM; on METTL3/METTL14 (setting [7]) it was less than 10 nM; against METTL1/WDR4, greater than 1000 nM; in assay [2], 1000 to 10000 nM.
